As a reminder, the % Inhibition is the drop in the measured response relative to a control, in per cent. The inhibition is the drop in the measured response relative to a control, in per cent. A low value points to a response near the control.

Entries after “also recorded” stand apart in the source; their conditions may differ. Read-outs that look alike come from different tables or passages of the source. Residues, ends and D or L forms follow the SMILES beside them.

Data set [1] deals with Schaffer collateral CA1 synapses. In words: long term potentiation (LTP) at Schaffer collateral CA1 synapses, in vitro hippocampal slices. Format: cell-based. As to conditions: for effect on magnitude of LTP: high frequency stimulus. From the text:
(§1) The effects of the three compounds were examined on 1) NMDA receptor gated single neuron conductance (INMDA) in hippocampal CAI pyramidal neurons and 2) the magnitude of long term potentiation (LTP) and long term depression (LTD) at Schaffer collateral CA1 synapses, in in vitro hippocampal slices.

For data set [2] the test system is unchanged. In words: long term depression (LTD) at Schaffer collateral CA1 synapses, in vitro hippocampal slices. Format: cell-based. Conditions: 1 μM; low frequency stimulus.
From the text: as §1

Data set [3] deals with T1, NMDA receptor (Rattus norvegicus, UniProt P35439).
T1 construct: in hippocampal CAI pyramidal neurons; from tissue; host or cells: in vitro hippocampal slices, CA1 pyramidal neurons
In words: NMDA receptor gated single neuron conductance (INMDA) in hippocampal CA1 pyramidal neurons. The data set is classed as cell-based. As to conditions: for relative potency / magnitude as enhancer of INMDA among the tested compounds: low concentrations (50-100 nM).
From the text: as §1

A further data set deals with Glutamate, Kainate. Put plainly: binding assay, Glutamate, Kainate. Set-up: species or system rat. As to conditions: 10 μM. From the text: (§2) Table B depicts the results of binding assays against various targets with AK51: […]
Data set [4] deals with Glutamate, NMDA, Polyamine. In words: binding assay, Glutamate, NMDA, Polyamine. Set-up: species or system rat. As to conditions: 10 μM.
From the text: as §2

Data set [5] relates to Glutamate, NMDA, Phencyclidine. Put plainly: binding assay, Glutamate, NMDA, Phencyclidine. Conditions: 10 μM. Also on record: species or system rat.
From the text: as §2

For data set [6], the system named is Glycine, Strychnine-Sensitive. In words: binding assay, Glycine, Strychnine-Sensitive. Also on record: species or system rat. As to conditions: 10 μM.
From the text: as §2

For another data set, the system named is Glutamate, Non-Selective. Put plainly: binding assay, Glutamate, Non-Selective. As to conditions: 10 μM. Set-up: species or system rat.
From the text: as §2

The next data set relates to Glutamate, NMDA, Agonism. Put plainly: binding assay, Glutamate, NMDA, Agonism. Also on record: species or system rat. As to conditions: 10 μM.
From the text: as §2

Data set [7] is described as follows: alternating T-maze learning task. Format: in vivo, rat. Conditions: 60 min before testing. Here is the method:
Male 3 month old Fisher 344 X Brown Norway F1 cross rats (FBNF1) were used for this study. The t-maze was constructed with arms (45 cm long×10 cm wide×10 cm high) made of black Plexiglas enclosing the maze. Two plastic bottle caps, lined with wire mesh, were secured to the end of each goal arm in which the food reward (Cheerios, 100 mg/piece) was placed. Before the start of training, animals were gradually deprived of food to approximately 85% of their free feeding weight. On three successive days before the start of training, animals were habituated to the t-maze with food located throughout the maze. […] On the subsequent testing day, animals were given injections of AK51(0.3, 1, 3, 10, 30 mg/kg p.o.), or DMSO vehicle (1 mg/ml; Sigma, Saint Louis Mo.) in a blind manner via gastric gavage (4″, 16-ga; Braintree Scientific, Braintree Mass.) 60 min prior to the start of testing (n=8-9 per group. On the first trial of testing, both arms were baited with food and for the subsequent 20 trials only alternating choices (opposite of the animal's previous choice) were rewarded (˜30 sec inter-trial interval). The number of trials to criterion (5 consecutive correct choices) was calculated for each animal. Data was analyzed by ANOVA followed by Fisher PLSD post hoc tests comparing individual drug doses to vehicle (α=0.05). […]

The next data set has as its target Potassium Channel hERG (Homo sapiens, UniProt Q12809). In words: binding assay, Potassium Channel hERG.
From the text: as §2

A further data set has as its system Glutamate, AMPA. Put plainly: binding assay, Glutamate, AMPA. Set-up: species or system rat. As to conditions: 10 μM.
From the text: as §2

In data set [8] the target is T1, NMDA receptor. Conditions: cited from earlier work.
Data set [9] has as its system Schaffer collateral CA1 synapses. As to conditions: cited from earlier work.
The test system is the same in data set [10]. As to conditions: cited from earlier work. The source holds these as a separate data set.

Chain of Potassium Channel hERG (Q12809 whole entry): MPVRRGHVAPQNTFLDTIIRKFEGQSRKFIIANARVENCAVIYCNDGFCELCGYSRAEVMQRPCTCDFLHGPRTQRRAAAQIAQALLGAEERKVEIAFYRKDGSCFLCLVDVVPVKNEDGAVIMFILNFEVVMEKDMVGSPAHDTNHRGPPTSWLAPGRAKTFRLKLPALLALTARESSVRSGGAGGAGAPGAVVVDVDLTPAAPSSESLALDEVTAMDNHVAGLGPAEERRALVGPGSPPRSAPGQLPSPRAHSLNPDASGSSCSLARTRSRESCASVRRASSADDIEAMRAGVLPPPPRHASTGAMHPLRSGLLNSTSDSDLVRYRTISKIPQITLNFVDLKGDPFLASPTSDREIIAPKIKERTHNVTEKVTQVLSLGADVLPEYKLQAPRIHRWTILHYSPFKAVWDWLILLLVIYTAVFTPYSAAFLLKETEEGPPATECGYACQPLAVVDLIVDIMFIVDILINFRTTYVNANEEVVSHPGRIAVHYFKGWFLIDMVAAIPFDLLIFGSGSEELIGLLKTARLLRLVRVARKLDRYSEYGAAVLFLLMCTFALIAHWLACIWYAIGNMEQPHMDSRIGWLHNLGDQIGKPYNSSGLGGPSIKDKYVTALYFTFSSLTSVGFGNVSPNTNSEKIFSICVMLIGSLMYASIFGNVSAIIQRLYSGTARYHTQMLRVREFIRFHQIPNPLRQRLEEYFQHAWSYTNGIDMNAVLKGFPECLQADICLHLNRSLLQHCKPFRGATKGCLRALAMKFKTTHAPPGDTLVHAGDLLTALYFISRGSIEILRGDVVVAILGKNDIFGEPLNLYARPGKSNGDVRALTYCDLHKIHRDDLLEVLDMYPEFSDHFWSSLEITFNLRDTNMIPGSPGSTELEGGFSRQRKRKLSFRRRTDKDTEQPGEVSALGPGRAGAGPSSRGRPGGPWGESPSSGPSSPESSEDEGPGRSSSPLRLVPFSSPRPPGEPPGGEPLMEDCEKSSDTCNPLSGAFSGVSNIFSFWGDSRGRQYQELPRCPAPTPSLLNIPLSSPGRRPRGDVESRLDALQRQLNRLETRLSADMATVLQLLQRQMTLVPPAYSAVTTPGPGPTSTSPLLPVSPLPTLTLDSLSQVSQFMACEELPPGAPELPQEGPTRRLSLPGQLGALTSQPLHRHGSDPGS

Turning to `CC(O)C(NC(=O)OCc1ccccc1)C(=O)N1CC2(CCCN2C(=O)OCc2ccccc2)C1=O` (stereo not drawn) [AK-52], the “effect on magnitude of LTP” value in [1] (100 nM) is “enhancement of LTP similar in magnitude to compound B and AK-51”; in data set [1] (1 μM) it was “slight, but significant, reduction”. In addition, the “effect on induction / magnitude of LTP” value in [1] (concentration not given) was “selectively enhances”. Moreover, the “effect on LTD” value in data set [2] is listed as “without altering; also recorded: did not affect”. Moreover, the “effect on single shock evoked INMDA (NMDA e.p.s.c.s)” value is on record as “only a mild enhancement” on NMDA receptor [3] (100 nM); “enhancement” on NMDA receptor [3] (100 nM, listed as AK52); “significant reduction” at NMDA receptor [3] (1 μM); “marked reduction” at NMDA receptor [3] (1 μM, listed as AK52). Also, the “relative potency / magnitude as enhancer of INMDA among the tested compounds” value at NMDA receptor [3] is listed as “weakest enhancer”.

As to `O=C1NCC12CCCN2` (stereo not drawn) [AK51], the “% Inhibition” value was −13% in the data set with Glutamate, Kainate; −14% in [4]; −5% in [5]; 4% in data set [6]; −10% in the data set with Glutamate, Non-Selective; 27% in the data set on Glutamate, NMDA, Agonism. Besides, the “% Inhibition” value in the data set with Glutamate, AMPA is recorded as −8%. In addition, the “effect on magnitude of LTP” value in [1] (100 nM) is given as “potentiate”; in data set [1] (1 μM) it was “potentiate”; in [1] (1 μM, listed as NRX-10,051), “doubled”. The “effect on LTP” value in [1] (FIG. 4, 100 nM and 1 μM bath application) is listed as “enhances”. Also, the “learning behavior in the T-maze test” value is listed as “statistically significant enhancement” in [7] (1.0 mg/kg by mouth, P<0.001) and “statistically significant enhancement” in data set [7] (3.0 mg/kg by mouth, P<0.01). The inhibition at 10 µM at Potassium Channel hERG is 3%. Moreover, the “effect on LTD” value in [2] was “not altering”. Besides, the “effect on single shock evoked INMDA (NMDA e.p.s.c.s)” value was “enhanced; also recorded: marked enhancement” on NMDA receptor [3] (100 nM, listed as NRX-10,051); “enhancement” at NMDA receptor [3] (1 μM); “enhanced” on NMDA receptor [3] (1 μM, listed as NRX-10,051). The “effect on NMDA current (NMDA receptor-gated current, whole-cell recording)” value at NMDA receptor [3] (FIG. 4, 100 nM and 1 μM, 20 min bath application) was “enhances”. Also, the “relative potency / magnitude as enhancer of INMDA among the tested compounds” value at NMDA receptor [3] was “less potency than compound B; also recorded: smaller in magnitude”.

In the case of `C[C@@H](O)[C@H](N)C(=O)N1CCC[C@H]1C(=O)N1CCC[C@H]1C(=O)N[C@H](C(N)=O)[C@@H](C)O` [GLYX-13] (H-TPPT-NH2), the “effect on burst INMDA” value on NMDA receptor [8] (100 μM) is given as “reducing”. Also, the “effect on burst-activated INMDA” value at NMDA receptor [8] (low concentration 1-10 μM) is listed as “enhancement”. In addition, the “effect on single pulse evoked INMDA” value on NMDA receptor [8] (low concentration 1-10 μM) is listed as “reducing”. Further, the “effect on LTP” value in data set [9] (100 μM) is reported as “reducing”; in data set [9] (low concentration 1-10 μM), “enhancement”. Besides, the “effect on LTD” value is “no longer affected” in data set [10] (100 μM) and “reducing” in data set [10] (low concentration 1-10 μM).

(Values after patent US9593145B2, “Secondary structure stabilized NMDA receptor modulators and uses thereof” (Northwestern University, priority 2010, dated 2017).)
